# Measurements as given in patent US20120039805A1, “Therapeutics And Methods For Treating Neoplastic Diseases Comprising Determining The Level Of Caveolin-1 And/Or Caveolin-2 In A Stromal Cell Sample” (PANGEA BIOSCIENCES, INC., priority 2009, published 2012).
# Experiments:
# [1] = system: PD-ECGF/TP transfected cells; settings: Haraguchi (1993); cited from earlier work
# neovascularization = settings: Oikawa (1988); cited from earlier work
# [2] = system: invasive carcinomas of the breast; assay: Breast cancer tissue microarray cohort: progression-free survival by treatment and stromal Cav-1; assay type: in vivo, human
# Procedure: Breast tissues for tissue microarray construction were obtained from the Surgical Pathology tiles at the University of Michigan with institutional Review Board (IRB) approval. The TMA contained tissues derived from 154 largely consecutive patients with invasive carcinomas of the breast, with follow-up information treated at the University of Michigan from 1987-1991. Clinical and pathological variables were determined following well-established criteria. All invasive carcinomas were graded according to the method described by Elston and Ellis 17; Lymphovascular Invasion (LVI) was classified as either present or absent. The tissue microarrays were constructed, as previously described, using a tissue arrayer (Beecher Instruments, Silver Spring, Md.). Three tissue cores (0.6 mm diameter) were sampled from each block to account for tumor and tissue heterogeneity and transferred to the recipient block. Only cases with two or three cores containing tumor stromal cells were considered for statistical analysis in order to address possible heterogeneity of the staining in various tumor portions. Clinical and treatment information was extracted by chart review.
# Our study population consists of 154 women diagnosed with breast cancer, with a median age of 59.5 years (range 28-96 years). 85% of the women were white. The median follow-up time for all survivors was 8.4 years (>30 days-18.5 years). […] The median time to recurrence or death from any cause was 7.1 years.
# Statistical Analysis. For each patient, the date of breast cancer diagnosis, date of last follow-up, vital status at last follow-up, causes of death (breast cancer or other), and breast cancer recurrence, were recorded. Stromal caveolin was scored for each tissue sample based on 3 cores taken from the sample and given a numeric score of 0, 1 or 2, depending on the degree of stromal Cav-1 staining. The median of the three numeric scores was taken to be the stromal Cav-1 score for the sample. In the event that only two of the cores were scorable, and the median score was fractional, it was rounded upward to reflect the presence of stromal Cav-1. […]
# Our primary outcome of interest in this study is progression-free survival (PFS) from time of diagnosis to the presence of metastasis, death, or last visit. PFS is evaluated using Kaplan-Meier estimation, and comparison of stratified survival curves was done using log-rank tests. […] Associations between the presence of stromal Cav-1 and other factors, including age, race, tumor grade, tumor size, lymph node status, histological subtype, estrogen receptor (ER), progesterone receptor (PR) and HER2, and presence of recurrent disease, were evaluated using Fisher's exact and Kruskal-Wallis tests, depending on the discrete or continuous nature of the other factors.
# [3] = system: MDA-MB-231 breast cancer cells co-injected with Cav-1-deficient stromal fibroblasts; assay: Two-component xenograft: nude mice co-injected with MDA-MB-231 cells and Cav-1-deficient stromal fibroblasts, treated with glycolysis inhibitors; assay type: in vivo; settings: given individually, 200 mg/kg; mice co-injected with Cav-1-deficient stromal fibroblasts and MDA-MB-231 cells
# Procedure: Mice co-injected with Cav-1-deficient stromal fibroblasts and MDA-MB-231 breast cancer cells were treated with glycolysis inhibitors. The efficacy of two well-established glycolysis inhibitors, namely 2-DG (2-deoxy-D-glucose) and DCA (dichloro-acetate), individually or in combination were tested.
# To provide additional experimental validation for the idea that an absence of stromal Cav-1 promotes breast cancer tumor growth and angiogenesis, a 2-component cell-system using xenografts in immuno-deficient female nude mice was developed. Briefly, the flanks of nude mice were injected with a mixture of 1) MDA-MB-231 cells (a highly aggressive human breast cancer cell line; 1.0×10^−6 cells) and 2) stromal fibroblasts, derived from either WT or Cav-1 (−/−) null mice (0.3×10^−6 cells). After 3 weeks, nude mice were sacrificed and breast cancer-derived tumors were subjected to analysis for growth (tumor weight and volume measurements) and immuno-histochemistry with markers of angiogenesis, such as CD31 (a.k.a, PECAM1).
# In this two-component system, nude mice are co-injected with i) human breast cancer cells (MDA-MB-231), and ii) stromal fibroblasts (WT versus Cav-1 (−/−) deficient).
# Cav-1 = assay: Co-culture of MCF-7 cells with normal human fibroblasts: Cav-1 down-regulation in fibroblasts; assay type: cell-based; settings: within 5 days of co-culture
# From the text: Using this system, it was observed that within 5 days of co-culture MCF-7 cells down-regulate the expression of Cav-1 in adjacent stromal fibroblasts. This occurs via the degradation of Cav-1 in lysosomal structures, and can be inhibited by chloroquine, an anti-lysomal agent. Most importantly, MCF-7 cells induce oxidative stress in the adjacent fibroblasts via the over-production of reactive oxygen species (ROS). ROS, in turn, is known to stabilize and activate certain transcription factors, such as NFkB and HIF. NFkB- and HIF- are the master regulators of “inflammation” and “hypoxia/aerobic glycolysis” in the tumor microenvironment. Thus, in order to detect the activation of NFkB and HIF only in the fibroblast cell population, two different fibroblast cell lines engineered to express either a NFkB-luciferase or HIF-luciferase transcriptional reporter were used. […] As such, NFkB is activated first, while HIF is activated on day 4 and day 5 of coculture, coicindent with Cav-1 down-regulation. Thus, cancer cells induce the Warburg effect in adjacent stromal fibroblasts via the activation of NFkB and HIF-target genes, leading to inflammation and aerobic glycolysis. These findings provide a mechanistic basis for the “Reverse Warburg Effect”, and a new high-throughput drug-screening assay for the identification of novel compounds that block the “Reverse Warburg Effect”.
# [4] = Tamoxifen-treated patients, stromal Cav-1 absent
structure (smiles),measurement,setting,value
"C[C@H]1O[C@@H](n2cc(F)c(=O)[nH]c2=O)[C@H](O)[C@@H]1O [5′DFUR, 5′-deoxy-5-fluorouridine]",antitumor effect in PD-ECGF/TP transfected cells compared with untransfected wild-type cells,[1],dramatic enhancement of antitumor effect
"CC(=O)O[C@]1(C(C)=O)CC[C@H]2[C@@H]3C[C@H](C)C4=CC(=O)CC[C@]4(C)[C@H]3CC[C@@]21C [MPA, medroxyprogesterone acetate]",neovascularization in the rabbit corneal assay,neovascularization,potently inhibited neovascularization
CC/C(=C(\c1ccccc1)c1ccc(OCCN(C)C)cc1)c1ccccc1 [Tamoxifen],"Hazard ratio, Cox regression of Progression-Free Survival (PFS)","[2]; Tamoxifen use Yes vs No (ref), adjusted for T stage, N stage, stromal Cav-1, 101 observations",0.621
same,Median Progression-Free Survival (PFS),[2]; [4],3.55 years
same,"Percent of Patients Alive with No Recurrence, 5-Year PFS",[2]; [4],28.6%
same,"Percent of Patients Alive with No Recurrence, 5-Year PFS","[2]; Tamoxifen-treated patients, stromal Cav-1 present",90.2%
"O=CC[C@@H](O)[C@H](O)[C@H](O)CO [2-DG, 2-deoxy-D-glucose]",effect on tumor growth,[3],no effect on tumor growth
CCN(CC)CCCC(C)Nc1ccnc2cc(Cl)ccc12 (centres unmarked) [chloroquine],degradation of Cav-1 in lysosomal structures of fibroblasts co-cultured with MCF-7 cells,Cav-1,inhibited
